How the values were obtained:
[1] = test system: porcine whole blood; assay: Sonoclot analysis (clotting time ACT and clot rate) in recalcified porcine whole blood; format: biochemical; conditions: for ACT / clot rate: 360 μl porcine whole blood, recalcified with 20 μl 0.2 M calcium chloride, 1.1 mg carrier, SCS as 4% by wt vesicle solution
From the text: The haemostatic effect of cholesteryl sulfate as such was investigated using a Sonoclot®Coagulation & Platelet Function Analyzer by Scienco® Inc with regard to the clotting time (ACT) and clot rate. In this case, the ACT value indicates the time until the onset of the first thickening of the blood, which matches the time required by the system for generating a first blood clot. The clot rate indicates the speed with which the clot solidifies, and is there fore a measure for fibrin formation.
For the investigations presently illustrated, different quantities of cholesteryl sulfate in the form of its sodium salt was dissolved in methanol, and aliquots were transferred into the reaction vessels. By evaporating the methanol, the cholesteryl sulfate was precipitated as a layer on the bottom of the reaction vessel. Then 360 μl of porcine citrate blood were put into the reaction vessel, and 20 μl 0.2 M calcium chloride solution were subsequently added for recalcification. Both the time until coagulation (ACT) as well as the clot formation rate were measured with the Sonoclot Analyzer.
In order to show the enhanced effects in blood clotting of the combination of cholesteryl sulphate as a haemostatic agent and a haemostatic carrier material such as collagen the Sonoclot-Test has been carried out according to example 1.
The test condition and materials were in accordance with example 1.
As a carrier material freeze-dried, milled collagen from the company Dr. Suwelack Skin & Health Care AG (SHC) as well as collagen from bovine tendon from the company Sigma Aldrich have been examined in the Sonoclot-Analyzer and compared to cholesteryl sulphate as well as to a combination of the collagen and cholesteryl sulphate (SCS).
For the examination of the collagen carrier material 1.1 mg carrier material were transferred into the reaction vessels containing 360 μl porcine whole blood. 12.5 μl isosmotic saline solution (NaCl) were subsequently admixed and 20 μl 0.2 M calcium chloride solution were subsequently added for recalcification. Both the time until coagulation (ACT) as well as the clot formation rate were measured with the Sonoclot Analyzer. High clot rate indicates fast fibrin formation and thus fast clot formation.
For the examination of the collagen carrier material in combination with cholesteryl sulphate instead of isosmotic saline solution 12.5 μl of a cholesteryl sulphate vesicle solution containing 4% by wt cholesteryl sulphate is admixed with the carrier material.
For the examination of the cholesteryl sulphate a 4% by wt vesicle solution alone was tested accordingly.
The vesicle solution was prepared as described in example 2, Nr. 2 a).

[2] = Solubility of cholesteryl sulfate salts; format: physicochemical
[3] = Stability of cholesteryl sulfate salts; format: physicochemical

| SMILES | ACT ([1]; Experiment 1) [s] | clot rate ([1]; Experiment 1) | ACT ([1]; Experiment 2) [s] | clot rate ([1]; Experiment 2) | effect on coagulation ([1]; non-activated system, no pre-incubation) | water-solubility [2] | solubility compared with sodium cholesteryl sulfate ([2]; e.g. in methanol) | stability compared with sodium cholesteryl sulfate [3] |
| --- | --- | --- | --- | --- | --- | --- | --- | --- |
| CC(C)CCC[C@@H](C)[C@H]1CC[C@H]2[C@@H]3CC=C4C[C@@H](OS(=O)(=O)[O-])CC[C@]4(C)[C@H]3CC[C@]12C.[Na+] [12.5 μl SCS, sodium cholesteryl sulfate] | 90 | 17 | 81 | 29 | coagulation-promoting effect | only small water-solubility |  |  |
| CC(C)CCC[C@@H](C)[C@H]1CC[C@H]2[C@@H]3CC=C4C[C@@H](OS(=O)(=O)[O-])CC[C@]4(C)[C@H]3CC[C@]12C.[K+] [potassium cholesteryl sulfate] |  |  |  |  |  | only small water-solubility | less soluble | greater stability |
